Source: PMC11732138, “Gold complex compounds that inhibit drug-resistant Staphylococcus aureus by targeting thioredoxin reductase” (Frontiers in Antibiotics, 2023)
pIC50: −log10 of the molar value. In brackets after ≈: the same amount, converted by molar mass. Entries after “also recorded” stand apart in the source; their conditions may differ. Read-outs that look alike come from different tables or passages of the source.

Tests used:
S. aureus MW2 [1] = assay: Broth microdilution MIC, S. aureus MW2; type: cell-based, Staphylococcus aureus; details: Staphylococcus aureus, MRSA, 18 h
Description: (§1) In vitro antibiotic susceptibilities were determined using the broth microdilution assay established by the Clinical and Laboratory Standards Institute ([Clinical and Laboratory Standards Institute, 2012]). Broth microdilution assays were carried out with 2 biological replicates, each in triplicate, Mueller–Hinton broth (MHB; BD Biosciences, Franklin Lakes, NJ, USA) with a total assay volume of 100 μL in 96-well plates (BD Biosciences, Franklin Lakes, NJ, USA). Two-fold serial dilutions of compounds were prepared at a range of 0.01– 64 μg/mL in 50 μL of MHB. The initial bacterial inoculum was adjusted to OD600 0.06, 50 μL was, added to the test compounds, and then incubated at 35°C for 18 h. Post incubation, OD600 was measured using a Vmax microplate reader (Molecular Devices, San Jose, CA), and the lowest concentration of test compound that suppressed bacterial growth was reported as the MIC. Broth culture from the MIC assay (10 μL) was plated on Mueller–Hinton agar (BD Biosciences, Franklin Lakes, NJ, USA), and colony-forming units (CFUs) were enumerated after overnight incubation at 37°C.

E. faecium ATCC E007 = assay: Broth microdilution MIC, E. faecium; type: cell-based, Enterococcus faecium; details: Enterococcus faecium, ATCCE007
Description: as §1

H. pylori 49503 = assay: Broth microdilution MIC, H. pylori; type: cell-based, Helicobacter pylori; details: Helicobacter pylori, 49503
Description: as §1

A. baumannii 17978 = assay: Broth microdilution MIC, A. baumannii; type: cell-based, Acinetobacter baumannii; details: Acinetobacter baumannii, 17978
Description: as §1

P. aeruginosa PA14 = assay: Broth microdilution MIC, P. aeruginosa; type: cell-based, Pseudomonas aeruginosa; details: Pseudomonas aeruginosa, PA14
Description: as §1

K. pneumoniae ATCC 77326 = assay: Broth microdilution MIC, K. pneumoniae; type: cell-based, Klebsiella pneumonia; details: Klebsiella pneumoniae, ATCC77326
Description: as §1

Enterobacter (EAE 2625) = assay: Broth microdilution MIC, Enterobacter; type: cell-based, Enterobacter spp.; details: Enterobacter
Description: as §1

[2] = tested on: clinical isolates of S. aureus; assay: MIC against clinical isolates of S. aureus; type: cell-based; details: Staphylococcus aureus
Description: Broth microdilution assays were carried out with 2 biological replicates, each in triplicate, Mueller–Hinton broth (MHB; BD Biosciences, Franklin Lakes, NJ, USA) with a total assay volume of 100 μL in 96-well plates (BD Biosciences, Franklin Lakes, NJ, USA). […] The initial bacterial inoculum was adjusted to OD600 0.06, 50 μL was, added to the test compounds, and then incubated at 35°C for 18 h. Post incubation, OD600 was measured using a Vmax microplate reader (Molecular Devices, San Jose, CA), and the lowest concentration of test compound that suppressed bacterial growth was reported as the MIC.
Isolates were tested as 2 biological replicates.

[3] = tested on: S. aureus MW2 biofilm formation; assay: Biofilm formation inhibition; type: cell-based, Staphylococcus aureus; details: 24 h, Alamar Blue
Description: (§2) Diluted bacterial cells were added to 100 μL of test compounds (serially diluted 16 to 0 μg/mL) and incubated for 24 h to assess the biofilm formation inhibition. For the disruption of matured biofilm, diluted cells in 100 μL were added to the 96-well plate and incubated for 24 h with no agitation. […] Biofilm assays were completed in triplicate.

mature S. aureus biofilm = assay: Disruption of mature biofilm; type: cell-based, Staphylococcus aureus; details: preformed 24 h biofilm, Alamar Blue
Description: as §2

[4] = tested on: renal proximal tubule epithelial cells; assay: Renal proximal tubule epithelial cell toxicity; type: cell-based, human
S. aureus MW2 [5] = assay: Time to kill assay; type: cell-based, Staphylococcus aureus; details: 4 × MIC, 4 h; bactericidal = 3-log10-CFU/mL reduction
Description: S. aureus MW2, a methicillin-resistant S. aureus (MRSA) isolate, was used to determine the bacteriostatic/bactericidal properties of test compounds, as previously described ([Rajamuthiah et al., 2015]). Assays were carried out as 2 biological replicates with n=3 for each in 24 well plates (BD Biosciences, Franklin Lakes, NJ, USA). Briefly, S. aureus MW2 cells were streaked on TSB agar from a frozen glycerol stock, and after overnight incubation, a single colony was inoculated on 2 mL of TSB and incubated at 37°C with agitation. The overnight culture of S. aureus MW2 was centrifuged at 4000 g for 5 min and then washed twice with PBS and collected through centrifuged at 4000 g for 5 min. The PBS was discarded and cells were suspended in TSB and aliquoted into a 24-well plate at a density of 10^8 cells/mL as a 1 mL volume. Test compounds were added such that the final concentration was 4 × MIC, and the cultures were incubated at 37°C with agitation. At designated time intervals, 5 μL aliquots from each test condition were serially diluted in TSB and plated onto TSA (BD Biosciences, Franklin Lakes, NJ, USA). CFUs were enumerated after overnight incubation at 35°C, and data were plotted using GraphPad Prism 9.0 (San Diego, CA, USA) to report the means and standard deviation of growth as measured by CFU/mL.

HKC cells = assay: Immortalized cell line toxicity (WST-1), HKC; type: cell-based, human; details: HKC kidney cell line, 24 h
Description: (§3) A hepatic cell line (HepG2), lung carcinoma cell line (A549), and kidney cell line (HKC) were used to test the cytotoxicity of investigational compounds. Cells were grown in DMEM (ThermoFisher Scientific, Waltham, MA, USA) supplemented with 10% fetal bovine serum (FBS) (ThermoFisher Scientific, Waltham, MA, USA) and 1% penicillin/streptomycin (ThermoFisher Scientific, Waltham, MA, USA) and maintained at 37°C in 5% CO2. 2.5x10^4 cells in 100 μL of DMEM with 10% FBS were added to wells of 96-well plates 24 h prior to the experiments. Compounds were serially diluted in […], and 100 μL antibiotic-free DMEM was added to the monolayer and incubated at 37°C in 5% CO2 for 24 h. At 2 h before the end of the incubation period, 10 μL of 2-(4-iodophenyl)-3-(4-nitrophenyl)-5-(2, 4-disulfophenyl)-2H-tetrazolium (WST-1) solution (Roche, Mannheim, Germany) was added to each well. WST-1 reduction was monitored at 450 nm using a Vmax microplate reader. Assays were performed in triplicate, and the percentage survival was calculated by comparing the compound-treated wells to the DMSO vehicle control wells.

HepG2 cells = assay: Immortalized cell line toxicity (WST-1), HepG2; type: cell-based, human; details: HepG2 liver cell line, 24 h
Description: as §3

A549 cells = assay: Immortalized cell line toxicity (WST-1), A549; type: cell-based, human; details: A549 lung carcinoma cell line, 24 h
Description: as §3

[6] = Immortalized cell line toxicity (WST-1), the three cell lines together; type: cell-based; details: human, hkc, hepg2, a549 cells, HKC, HepG2, A549; read-out: toxicity to cell lines as multiple of the MIC
Description: as §3

[7] = tested on: human primary hepatocytes; assay: Human primary hepatocytes toxicity; type: cell-based; details: 24 h, WST1
Description: Human primary hepatocytes toxicity. Cryopreserved human primary hepatocytes were purchased from the Cell Resource Core at Massachusetts General Hospital (Boston, MA, USA). Collagen sandwiched configuration was used to culture the thawed cells in 24-well plates. The 24-well plates were coated with rat tail collagen type I (Cell Recourse Core, MGH) and incubated for an hour before 4 x 10^5 live cells were plated and incubated at 37°C with 5% CO2 for 1 h to allow cells to attach to the collagen gel. After incubation, the medium was removed along with dead cells, and the remaining cells received 0.5 mL of hepatocyte culture medium containing Dulbecco’s modified Eagle’s medium (DMEM) media supplemented with 10% FBS, 0.5 U/mL insulin, 14 ng/mL glucagon, 20 ng/mL EGF, 7.5 µg/mL hydrocortisone and 200 U/mL penicillin-streptomycin. The cell cultures were incubated in a humidified, 5% CO2 incubator at 37°C. After 24 h, a top layer of collagen gel was poured over the hepatocytes attached to collagen on the bottom of the plate, making a sandwich model. After 1 h, investigational compounds at the designated concentrations were added and incubated for 24 h. Post incubation, hepatocyte WST1 (Roche, Basel, Switzerland) was added and incubated for 4 h. Cell staining was measured by recording the absorbance at 420 nm, measured using a Vmax microplate reader (Molecular Devices, San Jose, CA, USA.), and data were plotted using GraphPad Prism. Cells were tested in triplicate.

[8] = Compound solubility in PBS; type: physicochemical; details: aqueous buffer
Description: Compound solubility in PBS. Compound solubility was measured in PBS. Briefly, serial dilutions of test compounds were prepared in DMSO at 100x the final concentration. Test compound solutions were diluted 100-fold into PBS in a 96-well plate and mixed. After 2 h, the presence of precipitate was detected by measuring absorbance at 540 nm.

[9] = Compound solubility in DMSO; type: physicochemical; details: organic solvent or mixture, turbidity at 540 nm, read-out: concentration at which reduced solubility began in DMSO
Description: To test compound solubility, stock solutions were made in triplicate at 50 mg/mL in DMSO. Two-fold serial dilutions of the test compounds were prepared at 50 μL volume in a 96-well assay plate and were kept in the incubator for 1 h. After incubation, the absorbance was measured at 540 nm using a Vmax microplate reader (Molecular Devices, Sunnyvale, CA, USA.) to detect turbidity.

hERG channel = hERG channel (Homo sapiens, UniProt Q12809); assay: hERG measurement (QPatch HTX patch clamp)
hERG channel, sequence (Q12809 whole entry): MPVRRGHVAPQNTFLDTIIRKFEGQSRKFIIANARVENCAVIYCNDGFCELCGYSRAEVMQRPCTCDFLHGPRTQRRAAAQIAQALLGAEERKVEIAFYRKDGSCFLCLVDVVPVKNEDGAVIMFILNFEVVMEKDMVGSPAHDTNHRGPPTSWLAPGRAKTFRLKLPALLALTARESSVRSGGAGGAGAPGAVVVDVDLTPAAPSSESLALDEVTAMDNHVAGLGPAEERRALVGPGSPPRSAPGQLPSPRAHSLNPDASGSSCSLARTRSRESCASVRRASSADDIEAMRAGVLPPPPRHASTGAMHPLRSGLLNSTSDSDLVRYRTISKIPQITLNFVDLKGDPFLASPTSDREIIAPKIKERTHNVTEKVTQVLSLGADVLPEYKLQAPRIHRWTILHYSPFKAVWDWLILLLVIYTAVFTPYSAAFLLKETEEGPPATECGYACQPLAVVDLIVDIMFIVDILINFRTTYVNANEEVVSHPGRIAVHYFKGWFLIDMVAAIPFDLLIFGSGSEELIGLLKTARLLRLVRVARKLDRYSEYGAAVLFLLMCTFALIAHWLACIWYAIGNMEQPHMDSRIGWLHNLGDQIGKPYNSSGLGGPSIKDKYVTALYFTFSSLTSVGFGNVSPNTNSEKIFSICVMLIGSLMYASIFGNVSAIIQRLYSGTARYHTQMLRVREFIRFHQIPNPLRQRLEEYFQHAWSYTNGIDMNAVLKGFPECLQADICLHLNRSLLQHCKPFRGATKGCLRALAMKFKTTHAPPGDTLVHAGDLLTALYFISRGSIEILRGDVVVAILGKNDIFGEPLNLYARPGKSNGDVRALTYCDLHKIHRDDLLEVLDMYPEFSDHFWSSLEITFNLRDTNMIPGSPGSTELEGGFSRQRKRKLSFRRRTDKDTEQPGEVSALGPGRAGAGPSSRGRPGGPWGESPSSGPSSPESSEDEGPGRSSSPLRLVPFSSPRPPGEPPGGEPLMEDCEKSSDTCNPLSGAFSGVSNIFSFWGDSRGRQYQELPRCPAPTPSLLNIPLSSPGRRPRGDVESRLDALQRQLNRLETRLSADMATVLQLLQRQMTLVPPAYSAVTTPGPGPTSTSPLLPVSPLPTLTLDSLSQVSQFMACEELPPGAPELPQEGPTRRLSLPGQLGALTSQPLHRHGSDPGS
Description: QPatch HTX system (Sophion Biosciences A/S, Ballerup, Denmark) was used to examine hERG signaling (Cyprotex, Watertown, MA, USA). The system was primed with appropriate extracellular (NaCl, KCl, CaCl2, MgCl2, D-glucose, HEPES, pH 7.4) and intracellular (KCl, MgCl2, EGTA, MgATP, HEPES, pH 7.2) solutions before conducting the study in a 48 well plate (QPlate, Sophion Biosciences A/S, Ballerup, Denmark). All cell suspensions, buffers, and test compound solutions were kept at room temperature during the experiment. HEK293 cells stably transfected with hERG cDNA were washed and positioned into each well (recording chamber) of the QPlate. The QPatch system follows the general principles of conventional whole-cell patch-clamping: a high resistance seal is formed between the patch electrode, and an individual cell, the membrane across the electrode tip is then ruptured, and the whole-cell patch-clamp configuration is established. The standard voltage profile was as follows: step from -80 mV to –50 mV for 200 ms, +20 mV for 4.8 s, step to -50 mV for 5 s, then stepped to the holding potential of -80 mV. The step from -80 mV to the test command (+20 mV) results in an outward current (i.e., current flows out of the cell), and the step from the test command (+20 mV) to -50 mV results in the tail current (the tail current represents deactivation of the current overtime). Compound dilutions were prepared by diluting a DMSO solution (default 10 mM), followed by dilution into an extracellular buffer such that the final concentrations tested were 0.1, 1, and 10 μM (final DMSO concentration 0.1%). Perfusion solutions contained 0.05% Pluronic F-68 and were stored at room temperature for the duration of the experiment each day. The voltage protocol was run and recorded continuously during the experiment. Cells were treated with a vehicle for 3 min (i.e., 0.1% DMSO) followed by three increasing test substance concentrations (0.1, 1, and 10 μM). The test compounds were applied in triplicate at each concentration and tested in at least 2 cells (biological replicates). […]

S. aureus TrxR = S. aureus TrxR (Staphylococcus aureus, UniProt P66011); assay: TrxR (TrxB) enzymatic assay, DTNB to TNB conversion
S. aureus TrxR, sequence (P66011 whole entry): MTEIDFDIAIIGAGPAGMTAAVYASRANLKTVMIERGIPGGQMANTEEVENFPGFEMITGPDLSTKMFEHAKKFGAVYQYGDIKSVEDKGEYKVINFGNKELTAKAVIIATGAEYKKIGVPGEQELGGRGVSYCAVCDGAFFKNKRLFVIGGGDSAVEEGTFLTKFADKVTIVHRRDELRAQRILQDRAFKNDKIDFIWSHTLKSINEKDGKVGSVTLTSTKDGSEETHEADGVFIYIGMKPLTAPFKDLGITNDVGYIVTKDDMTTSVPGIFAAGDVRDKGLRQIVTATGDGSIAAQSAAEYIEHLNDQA
Description: TrxR specific inhibitory activity was evaluated using 40 μL of S. aureus TrxR enzyme (0.5 μg/μL) per 200 mL of the reaction mixture for 15 minutes, comparing auranofin to other sulfur-containing compounds (all tested at 10 μg/mL), including known anti-S. aureus compounds.
For the screening assay, diluted TrxR assay buffer (Cayman Chemical, Ann Arbor, MI) (100 μL) was mixed with the investigational compounds (20 μL) in a 96 well-plate format and combined with Sa-TrxB (40 μL; 0.5 μg/mL), DTNB (20 μL) and NADPH (20 μL). The reaction entailed combining NADPH and Sa-TrxB with DTNB, which was converted to TNB, producing a yellow color.

CN[C@H](CC(C)C)C(=O)N[C@H]1C(=O)N[C@@H](CC(N)=O)C(=O)N[C@H]2C(=O)N[C@H]3C(=O)N[C@H](C(=O)N[C@H](C(=O)O)c4cc(O)cc(O)c4-c4cc3ccc4O)[C@H](O)c3ccc(c(Cl)c3)Oc3cc2cc(c3O[C@@H]2O[C@H](CO)[C@@H](O)[C@H](O)[C@H]2O[C@H]2C[C@](C)(N)[C@H](O)[C@H](C)O2)Oc2ccc(cc2Cl)[C@H]1O [Vancomycin]
MIC (S. aureus MW2 [1]): 1 µg/mL (≈ 0.69 µM)
MIC (E. faecium ATCC E007): 1 µg/mL (≈ 0.69 µM)
MIC (H. pylori 49503): > 64 µg/mL
MIC (A. baumannii 17978): > 64 µg/mL
MIC (P. aeruginosa PA14): > 64 µg/mL
MIC (K. pneumoniae ATCC 77326): > 64 µg/mL
MIC (Enterobacter (EAE 2625)): > 64 µg/mL
MIC ([2]; isolate BFSA12): 1 µg/mL (≈ 0.69 µM)
MIC ([2]; isolate BFSA13): 1 µg/mL (≈ 0.69 µM)
MIC ([2]; isolate BFSA15): 1 µg/mL (≈ 0.69 µM)
MIC ([2]; isolate BFSA16): 1 µg/mL (≈ 0.69 µM)
MIC ([2]; isolate BFSA17): 1 µg/mL (≈ 0.69 µM)
MIC ([2]; isolate BFSA18): 2 µg/mL (≈ 1.38 µM)
MIC ([2]; isolate BFSA19): 1 µg/mL (≈ 0.69 µM)
MIC ([2]; isolate BFSA20): 1 µg/mL (≈ 0.69 µM)
MIC ([2]; isolate BFSA21): 2 µg/mL (≈ 1.38 µM)
MIC ([2]; isolate BFSA22): 2 µg/mL (≈ 1.38 µM)
MIC ([2]; isolate BFSA24): 1 µg/mL (≈ 0.69 µM)
MIC ([2]; isolate BFSA26): 2 µg/mL (≈ 1.38 µM)
MIC ([2]; isolate BFSA29): 1 µg/mL (≈ 0.69 µM)
MIC ([2]; isolate BFSA30): 1 µg/mL (≈ 0.69 µM)
MIC ([2]; isolate BFSA31): 2 µg/mL (≈ 1.38 µM)
MIC ([2]; isolate BFSA32): 2 µg/mL (≈ 1.38 µM)
MIC ([2]; isolate BFSA33): 2 µg/mL (≈ 1.38 µM)
MIC ([2]; isolate BFSA34): 1 µg/mL (≈ 0.69 µM)
MIC ([2]; isolate BFSA35): 1 µg/mL (≈ 0.69 µM)
MIC ([2]; isolate BFSA36): 2 µg/mL (≈ 1.38 µM)
MIC ([2]; isolate BFSA37): 1 µg/mL (≈ 0.69 µM)
MIC ([2]; isolate BFSA38): 1 µg/mL (≈ 0.69 µM)
MIC ([2]; isolate BFSA39): 1 µg/mL (≈ 0.69 µM)
MIC ([2]; isolate BFSA148): 1 µg/mL (≈ 0.69 µM)
MIC ([2]; isolate BFSA149): 2 µg/mL (≈ 1.38 µM)
MIC ([2]; isolate BFSA150): 1 µg/mL (≈ 0.69 µM)
MIC ([2]; isolate BFSA151): 1 µg/mL (≈ 0.69 µM)
MIC ([2]; isolate BFSA152): 2 µg/mL (≈ 1.38 µM)
MIC ([2]; isolate BFSA153): 2 µg/mL (≈ 1.38 µM)
MIC ([2]; isolate BFSA155): 1 µg/mL (≈ 0.69 µM)
concentration that inhibited biofilm formation (P<0.01) [3]: 1 µg/mL
concentration that significantly reduced mature biofilm (mature S. aureus biofilm): 2 µg/mL
impact on renal proximal tubule epithelial cells (in words) ([4]; at the tested concentrations): did not impact

CC(C)(C)c1ccc(S(=O)[O-])cc1.[Au+].c1ccc(P(c2ccccc2)c2ccccc2)cc1 [AU5]
bactericidal versus bacteriostatic nature (time-to-kill kinetics) (S. aureus MW2 [5]): bactericidal; also recorded: bacteriocidal
LD50 (HKC cells): approximately 4 μg/mL
LD50 (HepG2 cells): approximately 4 μg/mL
LD50 (A549 cells): approximately 4 μg/mL
selectivity ratio at 24 h [6]: 16
LD50 [7]: ~6 µg/mL
LD50 ([4]; renal proximal tubule epithelial cells): 2 µg/mL
solubility at 2 h ([8]; PBS, 2 Hour, highest concentration with no detectable precipitate, read-out: Solubility Limit): 3.13 µM
solubility at 2 h ([8]; pbs, read-out: Solubility in PBS converted to mass concentration): 2.03 µg/mL
solubility at 1 h [9]: 6.5 µg/mL
pIC50 (hERG channel): 5.50
pIC50 (S. aureus TrxR): 5.74
